Data reported in patent US9995734B2, “Human T cell line assay for evaluating the immunologic identity of glatiramer acetate preparations” (Mylan Inc., priority 2013, dated 2018).

Tested on: Donor 3 COP T-Cell Lines
Test: ATP proliferation assay (CellTiter Glo), Donor 3 COP T-cell lines, incl. reactivity to non-canonical GA peptides
Format: cell-based, human
Conditions: for Reactivity (proliferation), Mean: Day 54 of culture

With glatiramer acetate [GMA] the “response in ATP proliferation assay” value (165-D2C, 165-C7C, 165-C4C, Day 39, three concentrations (Table 24)) was “responded comparably”, the “Reactivity (proliferation), Mean” value (T-cell line 165-B6C, 1 μg/mL antigen, No Antigen 2358) was 3939 RLU and the “Mean, ATP proliferation assay” value (T-cell line 165-B6C, 1 μg/mL, Day 46, after 3 days) was 9925 RLU. For the same substance, the “Reactivity (proliferation), Mean” value (T-cell line 165-B6C, 3 μg/mL antigen, No Antigen 2358) was 19344 RLU, the “Mean, ATP proliferation assay” value (T-cell line 165-B6C, 3 μg/mL, Day 46, after 3 days) was 38105 RLU and the “Reactivity (proliferation), Mean” value (T-cell line 165-B6C, 10 μg/mL antigen, No Antigen 2358) was 29012 RLU. The “Mean, ATP proliferation assay” value (T-cell line 165-B6C, 10 μg/mL, Day 46, after 3 days) was 25839 RLU, the “Reactivity (proliferation), Mean” value (T-cell line 165-B6C, 100 μg/mL antigen, No Antigen 2358) was 9856 RLU and the “Mean, ATP proliferation assay” value (T-cell line 165-B6C, Day 32, 10 μg/mL) was 1058 RLU. For the same substance, the “Reactivity (proliferation), Mean” value (T-cell line 165-B10C, 1 μg/mL antigen, No Antigen 2234) was 1942 RLU, the “Mean, ATP proliferation assay” value (T-cell line 165-B10C, 1 μg/mL, Day 46, after 3 days) was 5592 RLU and the “Reactivity (proliferation), Mean” value (T-cell line 165-B10C, 3 μg/mL antigen, No Antigen 2234) was 2658 RLU. For the same substance, the “Mean, ATP proliferation assay” value (T-cell line 165-B10C, 3 μg/mL, Day 46, after 3 days) was 13012 RLU, the “Reactivity (proliferation), Mean” value (T-cell line 165-B10C, 10 μg/mL antigen, No Antigen 2234) was 5854 RLU and the “Mean, ATP proliferation assay” value (T-cell line 165-B10C, 10 μg/mL, Day 46, after 3 days) was 19866 RLU. For the same substance, the “Reactivity (proliferation), Mean” value (T-cell line 165-B10C, 100 μg/mL antigen, No Antigen 2234) was 6380 RLU, the “Proliferation (luminescent ATP assay), Mean” value (T-cell line 165-C4C, 1 μg/mL antigen, Day 66 of culture, 0 μg/mL 1881) was 2668 and the “Mean, ATP proliferation assay” value (T-cell line 165-C4C, 1 μg/mL, Day 39) was 9367. The “Proliferation (luminescent ATP assay), Mean” value (T-cell line 165-C4C, 3 μg/mL antigen, Day 66 of culture, 0 μg/mL 1881) was 16108, the “Mean, ATP proliferation assay” value (T-cell line 165-C4C, 3 μg/mL, Day 39) was 26279 and the “Proliferation (luminescent ATP assay), Mean” value (T-cell line 165-C4C, 10 μg/mL antigen, Day 66 of culture, 0 μg/mL 1881) was 88509. The “Mean, ATP proliferation assay” value (T-cell line 165-C4C, 10 μg/mL, Day 39) was 31014, the “Mean, ATP proliferation assay” value (T-cell line 165-C7C, 1 μg/mL, Day 39) was 3307 and the “Proliferation (luminescent ATP assay), Mean” value (T-cell line 165-C7C, 1.25 μg/mL antigen, autologous B-LCL) was 610 RLU. The “Proliferation (luminescent ATP assay), Mean” value (T-cell line 165-C7C, 2.5 μg/mL antigen, autologous B-LCL) was 2699 RLU, the “Mean, ATP proliferation assay” value (T-cell line 165-C7C, 3 μg/mL, Day 39) was 12832 and the “Proliferation (luminescent ATP assay), Mean” value (T-cell line 165-C7C, 5 μg/mL antigen, autologous B-LCL) was 22588 RLU. For the same substance, the “Proliferation (luminescent ATP assay), Mean” value (T-cell line 165-C7C, 10 μg/mL antigen, autologous B-LCL) was 24029 RLU, the “Mean, ATP proliferation assay” value (T-cell line 165-C7C, 10 μg/mL, Day 39) was 42739 and the “Mean, ATP proliferation assay” value (T-cell line 165-D2C, 1 μg/mL, Day 39) was 3881. The “Mean, ATP proliferation assay” value (T-cell line 165-D2C, 3 μg/mL, Day 39) was 7503, the “Mean, ATP proliferation assay” value (T-cell line 165-D2C, 10 μg/mL, Day 39) was 13253 and the “Reactivity (proliferation), Mean” value (T-cell line 165-D3C, 1 μg/mL antigen, No Antigen 8319) was 24131 RLU. The “Mean, ATP proliferation assay” value (T-cell line 165-D3C, 1 μg/mL, Day 46, after 3 days) was 61535 RLU, the “Reactivity (proliferation), Mean” value (T-cell line 165-D3C, 3 μg/mL antigen, No Antigen 8319) was 58814 RLU and the “Mean, ATP proliferation assay” value (T-cell line 165-D3C, 3 μg/mL, Day 46, after 3 days) was 80112 RLU. The “Reactivity (proliferation), Mean” value (T-cell line 165-D3C, 10 μg/mL antigen, No Antigen 8319) was 57024 RLU, the “Mean, ATP proliferation assay” value (T-cell line 165-D3C, 10 μg/mL, Day 46, after 3 days) was 107772 RLU and the “Reactivity (proliferation), Mean” value (T-cell line 165-D3C, 100 μg/mL antigen, No Antigen 8319) was 14205 RLU. For the same substance, the “Mean, ATP proliferation assay” value (T-cell line 165-D3C, Day 32, 10 μg/mL) was 3436 RLU, the “Reactivity (proliferation), Mean” value (T-cell line 165-D11C, 1 μg/mL antigen, No Antigen 4571) was 3636 RLU and the “Mean, ATP proliferation assay” value (T-cell line 165-D11C, 1 μg/mL, Day 46, after 3 days) was 15655 RLU. For the same substance, the “Reactivity (proliferation), Mean” value (T-cell line 165-D11C, 3 μg/mL antigen, No Antigen 4571) was 6578 RLU, the “Mean, ATP proliferation assay” value (T-cell line 165-D11C, 3 μg/mL, Day 46, after 3 days) was 17777 RLU and the “Reactivity (proliferation), Mean” value (T-cell line 165-D11C, 10 μg/mL antigen, No Antigen 4571) was 16338 RLU. The “Mean, ATP proliferation assay” value (T-cell line 165-D11C, 10 μg/mL, Day 46, after 3 days) was 56609 RLU, the “Reactivity (proliferation), Mean” value (T-cell line 165-D11C, 100 μg/mL antigen, No Antigen 4571) was 14560 RLU and the “Mean, ATP proliferation assay” value (T-cell line 165-D11C, Day 32, 10 μg/mL) was 416 RLU. The “Reactivity (proliferation), Mean” value (T-cell line 165-E3C, 1 μg/mL antigen, No Antigen 2797) was 2954 RLU and the “Mean, ATP proliferation assay” value (T-cell line 165-E3C, 1 μg/mL, Day 46, after 3 days) was 10662 RLU.
